Drawing on ChEMBL document CHEMBL1152560, “Substituted 2-arylbenzothiazoles as kinase inhibitors: hit-to-lead optimization” (Bioorg Med Chem, 2009), this text covers residual activity for three compounds.

For test [1], the target named is CDK8/Cyclin C (Homo sapiens) (UniProt P49336+P24863). Briefly: Residual activity of CDK8/Cyclin C at 1 uM by microplate scintillation counting. Format: protein-complex assay.
Test [2] addresses Death-associated protein kinase 1 (Homo sapiens) (UniProt P53355). Briefly: Residual activity of DAPK1 at 1 uM by microplate scintillation counting.
Test [3] addresses Interferon-induced, double-stranded RNA-activated protein kinase (Homo sapiens) (UniProt P19525). Briefly: Residual activity of EIF2AK2 at 1 uM by microplate scintillation counting.
For test [4], the target named is T1, Eukaryotic translation initiation factor 2-alpha kinase 3 (Homo sapiens) (UniProt Q9NZJ5).
T1 sequence (whole entry): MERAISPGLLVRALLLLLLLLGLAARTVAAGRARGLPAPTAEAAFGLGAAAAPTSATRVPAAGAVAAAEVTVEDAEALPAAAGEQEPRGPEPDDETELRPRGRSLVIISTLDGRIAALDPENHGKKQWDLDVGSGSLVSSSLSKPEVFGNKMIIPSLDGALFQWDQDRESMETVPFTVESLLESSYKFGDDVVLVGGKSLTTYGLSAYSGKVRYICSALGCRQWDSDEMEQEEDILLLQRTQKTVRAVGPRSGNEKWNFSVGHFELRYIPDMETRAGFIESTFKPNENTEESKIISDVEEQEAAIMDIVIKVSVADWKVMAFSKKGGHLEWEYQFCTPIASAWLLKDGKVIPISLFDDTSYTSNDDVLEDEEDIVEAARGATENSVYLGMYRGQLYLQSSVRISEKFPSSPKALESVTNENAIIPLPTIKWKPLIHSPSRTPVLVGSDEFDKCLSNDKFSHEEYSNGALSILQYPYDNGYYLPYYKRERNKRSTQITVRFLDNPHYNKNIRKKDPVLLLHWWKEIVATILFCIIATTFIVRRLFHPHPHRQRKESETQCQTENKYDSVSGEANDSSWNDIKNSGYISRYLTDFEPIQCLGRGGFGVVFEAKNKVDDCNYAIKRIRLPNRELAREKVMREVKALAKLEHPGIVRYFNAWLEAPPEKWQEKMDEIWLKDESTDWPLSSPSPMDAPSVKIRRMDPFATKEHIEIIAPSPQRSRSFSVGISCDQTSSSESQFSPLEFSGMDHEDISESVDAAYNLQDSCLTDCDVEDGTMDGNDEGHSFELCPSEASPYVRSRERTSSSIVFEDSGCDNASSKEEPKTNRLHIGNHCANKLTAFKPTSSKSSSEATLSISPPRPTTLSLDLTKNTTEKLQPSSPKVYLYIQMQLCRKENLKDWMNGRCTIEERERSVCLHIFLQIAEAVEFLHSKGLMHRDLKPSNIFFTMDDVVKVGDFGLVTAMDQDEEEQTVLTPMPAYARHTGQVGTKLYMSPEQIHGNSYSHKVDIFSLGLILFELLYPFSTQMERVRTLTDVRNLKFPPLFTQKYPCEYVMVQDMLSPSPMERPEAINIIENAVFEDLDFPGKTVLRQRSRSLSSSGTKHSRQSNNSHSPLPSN
Briefly: Residual activity of EIF2AK3 at 1 uM by microplate scintillation counting.

The target of test [5] is Fibroblast growth factor receptor 2 (Homo sapiens) (UniProt P21802). Briefly: Residual activity of FGFR2 at 0.1 uM by microplate scintillation counting.
For test [6], the target named is Serine/threonine-protein kinase 26 (Homo sapiens) (UniProt Q9P289). Briefly: Residual activity of MST4 at 0.1 uM by microplate scintillation counting.
The target in test [7] is T2, cGMP-dependent protein kinase 2 (Homo sapiens) (UniProt Q13237).
T2 sequence (whole entry): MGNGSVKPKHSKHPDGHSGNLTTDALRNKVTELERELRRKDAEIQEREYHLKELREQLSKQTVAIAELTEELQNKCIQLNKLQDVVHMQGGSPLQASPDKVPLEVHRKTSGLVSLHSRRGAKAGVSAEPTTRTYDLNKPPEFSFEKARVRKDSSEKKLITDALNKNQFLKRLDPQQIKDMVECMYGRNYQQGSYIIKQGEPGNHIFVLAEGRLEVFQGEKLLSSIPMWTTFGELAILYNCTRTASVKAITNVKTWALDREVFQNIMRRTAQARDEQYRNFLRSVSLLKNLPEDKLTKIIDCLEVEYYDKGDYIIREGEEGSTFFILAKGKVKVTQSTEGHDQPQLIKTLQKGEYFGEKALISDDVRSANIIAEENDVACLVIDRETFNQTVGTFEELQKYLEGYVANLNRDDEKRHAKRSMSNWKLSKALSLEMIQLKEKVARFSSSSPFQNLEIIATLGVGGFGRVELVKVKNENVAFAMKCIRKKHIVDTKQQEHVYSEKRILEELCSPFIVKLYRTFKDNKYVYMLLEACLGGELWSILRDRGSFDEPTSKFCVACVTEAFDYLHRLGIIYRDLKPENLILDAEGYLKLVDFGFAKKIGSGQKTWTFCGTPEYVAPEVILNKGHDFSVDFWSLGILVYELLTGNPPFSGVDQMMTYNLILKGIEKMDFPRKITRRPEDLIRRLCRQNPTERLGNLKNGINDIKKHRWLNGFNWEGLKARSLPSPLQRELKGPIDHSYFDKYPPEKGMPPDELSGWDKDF
Briefly: Residual activity of PRKG2 at 1 uM by microplate scintillation counting.

Test [8] has as its system Fibroblast growth factor receptor 1 (Homo sapiens), P11362 [V561M]. Briefly: Residual activity of FGFR1 V561M mutant at 10 uM by microplate scintillation counting.
Test [9] addresses T3, Aurora kinase C (Homo sapiens) (UniProt Q9UQB9).
T3 sequence (whole entry): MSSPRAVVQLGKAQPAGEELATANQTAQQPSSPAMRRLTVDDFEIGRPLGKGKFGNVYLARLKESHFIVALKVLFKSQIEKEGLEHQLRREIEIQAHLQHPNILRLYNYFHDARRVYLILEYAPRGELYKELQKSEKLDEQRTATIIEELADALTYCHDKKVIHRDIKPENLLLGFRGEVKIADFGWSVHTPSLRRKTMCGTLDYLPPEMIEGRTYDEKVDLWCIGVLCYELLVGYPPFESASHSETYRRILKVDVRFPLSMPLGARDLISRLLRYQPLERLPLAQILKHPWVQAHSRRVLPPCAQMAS
Briefly: Residual activity of Aurora-C at 1 uM by microplate scintillation counting.

Test [10] addresses Calcium/calmodulin-dependent protein kinase type 1D (Homo sapiens) (UniProt Q8IU85). Briefly: Residual activity of CAMK1D at 10 uM by microplate scintillation counting.
Test [11] concerns the target CDK3/cyclin E (Homo sapiens) (UniProt P24864+O96020+Q00526). Briefly: Residual activity of CDK3/Cyclin E at 10 uM by microplate scintillation counting. In kind it is protein-complex assay.
For test [12], the target named is Receptor-interacting serine/threonine-protein kinase 2 (Homo sapiens) (UniProt O43353). Briefly: Residual activity of RIPK2 at 10 uM by microplate scintillation counting.
Chain of Receptor-interacting serine/threonine-protein kinase 2 (Homo sapiens) (O43353 whole entry): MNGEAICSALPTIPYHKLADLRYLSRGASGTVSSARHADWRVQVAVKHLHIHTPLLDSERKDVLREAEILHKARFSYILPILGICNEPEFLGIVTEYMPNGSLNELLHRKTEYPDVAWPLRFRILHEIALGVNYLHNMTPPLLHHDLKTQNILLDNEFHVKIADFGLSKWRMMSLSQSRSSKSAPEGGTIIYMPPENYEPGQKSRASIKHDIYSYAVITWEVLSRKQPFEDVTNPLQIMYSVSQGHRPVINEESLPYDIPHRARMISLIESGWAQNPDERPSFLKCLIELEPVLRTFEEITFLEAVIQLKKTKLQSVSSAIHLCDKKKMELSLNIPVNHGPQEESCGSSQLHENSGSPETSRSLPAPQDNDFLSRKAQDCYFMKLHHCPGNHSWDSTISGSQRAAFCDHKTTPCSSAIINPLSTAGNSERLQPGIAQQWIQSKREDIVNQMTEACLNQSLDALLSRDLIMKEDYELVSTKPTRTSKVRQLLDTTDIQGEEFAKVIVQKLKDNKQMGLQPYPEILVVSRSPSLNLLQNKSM

Chain of CDK3/cyclin E (Homo sapiens) (O96020 whole entry, looked up): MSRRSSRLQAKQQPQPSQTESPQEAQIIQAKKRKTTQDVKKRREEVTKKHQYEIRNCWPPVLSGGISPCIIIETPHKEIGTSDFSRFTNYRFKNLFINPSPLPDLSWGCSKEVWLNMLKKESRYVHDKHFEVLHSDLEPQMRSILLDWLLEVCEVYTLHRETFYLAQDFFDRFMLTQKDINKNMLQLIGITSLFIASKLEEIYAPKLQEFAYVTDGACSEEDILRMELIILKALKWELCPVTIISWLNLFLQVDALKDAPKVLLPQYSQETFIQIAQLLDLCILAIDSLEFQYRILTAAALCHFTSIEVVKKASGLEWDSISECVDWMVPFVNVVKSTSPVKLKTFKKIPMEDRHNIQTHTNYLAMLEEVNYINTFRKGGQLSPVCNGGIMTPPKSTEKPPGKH
Chain of CDK3/cyclin E (Homo sapiens) (P24864 whole entry, looked up): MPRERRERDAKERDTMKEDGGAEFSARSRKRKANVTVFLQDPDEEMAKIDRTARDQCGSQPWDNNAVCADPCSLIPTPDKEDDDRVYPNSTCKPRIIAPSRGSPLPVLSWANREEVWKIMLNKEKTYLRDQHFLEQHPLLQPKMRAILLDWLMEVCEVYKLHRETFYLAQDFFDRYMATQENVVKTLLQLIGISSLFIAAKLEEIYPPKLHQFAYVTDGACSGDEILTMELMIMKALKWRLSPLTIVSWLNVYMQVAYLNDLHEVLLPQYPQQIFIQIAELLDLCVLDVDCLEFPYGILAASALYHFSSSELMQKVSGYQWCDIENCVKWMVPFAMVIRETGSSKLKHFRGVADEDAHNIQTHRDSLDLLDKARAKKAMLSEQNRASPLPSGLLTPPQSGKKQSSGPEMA
Chain of CDK3/cyclin E (Homo sapiens) (Q00526 whole entry, looked up): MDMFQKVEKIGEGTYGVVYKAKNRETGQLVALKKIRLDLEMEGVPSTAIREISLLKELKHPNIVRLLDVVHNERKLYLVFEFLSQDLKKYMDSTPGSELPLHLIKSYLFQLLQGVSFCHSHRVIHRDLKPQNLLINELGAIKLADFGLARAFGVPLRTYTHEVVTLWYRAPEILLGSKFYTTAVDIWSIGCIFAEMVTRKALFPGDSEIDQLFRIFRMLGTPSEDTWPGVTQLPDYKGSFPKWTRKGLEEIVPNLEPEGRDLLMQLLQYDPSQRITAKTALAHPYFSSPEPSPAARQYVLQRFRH
Chain of Serine/threonine-protein kinase 26 (Homo sapiens) (Q9P289 2-416 limits assumed): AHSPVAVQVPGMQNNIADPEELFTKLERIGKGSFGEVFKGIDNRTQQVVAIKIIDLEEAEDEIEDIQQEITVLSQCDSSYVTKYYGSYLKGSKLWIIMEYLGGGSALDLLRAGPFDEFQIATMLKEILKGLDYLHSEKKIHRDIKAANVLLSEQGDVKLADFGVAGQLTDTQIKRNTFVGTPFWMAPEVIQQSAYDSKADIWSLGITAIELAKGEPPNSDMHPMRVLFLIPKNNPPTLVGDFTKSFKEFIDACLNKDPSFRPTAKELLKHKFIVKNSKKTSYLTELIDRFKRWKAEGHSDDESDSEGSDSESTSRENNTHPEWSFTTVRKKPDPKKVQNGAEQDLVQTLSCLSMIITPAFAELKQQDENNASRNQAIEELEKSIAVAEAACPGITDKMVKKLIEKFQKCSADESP
Chain of Calcium/calmodulin-dependent protein kinase type 1D (Homo sapiens) (Q8IU85 whole entry, looked up): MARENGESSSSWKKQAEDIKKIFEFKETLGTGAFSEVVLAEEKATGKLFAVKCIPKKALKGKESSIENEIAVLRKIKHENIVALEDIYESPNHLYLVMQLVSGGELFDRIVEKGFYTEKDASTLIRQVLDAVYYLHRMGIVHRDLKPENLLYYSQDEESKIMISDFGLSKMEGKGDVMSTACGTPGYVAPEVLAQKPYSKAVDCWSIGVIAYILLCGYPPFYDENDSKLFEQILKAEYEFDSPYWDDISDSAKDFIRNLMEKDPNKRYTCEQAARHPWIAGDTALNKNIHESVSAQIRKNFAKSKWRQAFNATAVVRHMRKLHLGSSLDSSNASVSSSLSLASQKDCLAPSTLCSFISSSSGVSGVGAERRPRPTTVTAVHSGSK
Chain of Fibroblast growth factor receptor 2 (Homo sapiens) (P21802 22-821 limits assumed): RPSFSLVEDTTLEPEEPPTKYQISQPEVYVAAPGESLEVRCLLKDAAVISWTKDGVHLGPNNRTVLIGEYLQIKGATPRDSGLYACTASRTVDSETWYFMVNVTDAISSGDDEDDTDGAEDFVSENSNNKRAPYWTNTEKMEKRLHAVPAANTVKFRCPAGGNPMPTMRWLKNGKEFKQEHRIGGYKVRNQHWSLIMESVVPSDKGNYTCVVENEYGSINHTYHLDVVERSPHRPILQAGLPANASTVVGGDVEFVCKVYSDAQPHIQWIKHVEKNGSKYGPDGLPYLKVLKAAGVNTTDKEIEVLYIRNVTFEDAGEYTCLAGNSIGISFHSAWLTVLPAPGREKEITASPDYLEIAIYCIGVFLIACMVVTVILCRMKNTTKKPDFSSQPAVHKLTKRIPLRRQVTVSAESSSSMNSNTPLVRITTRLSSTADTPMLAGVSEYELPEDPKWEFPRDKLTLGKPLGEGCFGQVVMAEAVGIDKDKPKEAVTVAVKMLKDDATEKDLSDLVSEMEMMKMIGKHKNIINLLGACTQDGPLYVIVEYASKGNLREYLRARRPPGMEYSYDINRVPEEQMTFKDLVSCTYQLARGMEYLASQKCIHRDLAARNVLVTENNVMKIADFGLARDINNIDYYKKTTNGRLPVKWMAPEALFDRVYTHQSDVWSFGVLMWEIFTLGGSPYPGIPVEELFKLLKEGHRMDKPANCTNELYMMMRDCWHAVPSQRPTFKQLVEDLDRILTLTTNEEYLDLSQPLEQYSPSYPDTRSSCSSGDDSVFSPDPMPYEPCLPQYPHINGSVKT
Chain of Death-associated protein kinase 1 (Homo sapiens) (P53355 whole entry, looked up): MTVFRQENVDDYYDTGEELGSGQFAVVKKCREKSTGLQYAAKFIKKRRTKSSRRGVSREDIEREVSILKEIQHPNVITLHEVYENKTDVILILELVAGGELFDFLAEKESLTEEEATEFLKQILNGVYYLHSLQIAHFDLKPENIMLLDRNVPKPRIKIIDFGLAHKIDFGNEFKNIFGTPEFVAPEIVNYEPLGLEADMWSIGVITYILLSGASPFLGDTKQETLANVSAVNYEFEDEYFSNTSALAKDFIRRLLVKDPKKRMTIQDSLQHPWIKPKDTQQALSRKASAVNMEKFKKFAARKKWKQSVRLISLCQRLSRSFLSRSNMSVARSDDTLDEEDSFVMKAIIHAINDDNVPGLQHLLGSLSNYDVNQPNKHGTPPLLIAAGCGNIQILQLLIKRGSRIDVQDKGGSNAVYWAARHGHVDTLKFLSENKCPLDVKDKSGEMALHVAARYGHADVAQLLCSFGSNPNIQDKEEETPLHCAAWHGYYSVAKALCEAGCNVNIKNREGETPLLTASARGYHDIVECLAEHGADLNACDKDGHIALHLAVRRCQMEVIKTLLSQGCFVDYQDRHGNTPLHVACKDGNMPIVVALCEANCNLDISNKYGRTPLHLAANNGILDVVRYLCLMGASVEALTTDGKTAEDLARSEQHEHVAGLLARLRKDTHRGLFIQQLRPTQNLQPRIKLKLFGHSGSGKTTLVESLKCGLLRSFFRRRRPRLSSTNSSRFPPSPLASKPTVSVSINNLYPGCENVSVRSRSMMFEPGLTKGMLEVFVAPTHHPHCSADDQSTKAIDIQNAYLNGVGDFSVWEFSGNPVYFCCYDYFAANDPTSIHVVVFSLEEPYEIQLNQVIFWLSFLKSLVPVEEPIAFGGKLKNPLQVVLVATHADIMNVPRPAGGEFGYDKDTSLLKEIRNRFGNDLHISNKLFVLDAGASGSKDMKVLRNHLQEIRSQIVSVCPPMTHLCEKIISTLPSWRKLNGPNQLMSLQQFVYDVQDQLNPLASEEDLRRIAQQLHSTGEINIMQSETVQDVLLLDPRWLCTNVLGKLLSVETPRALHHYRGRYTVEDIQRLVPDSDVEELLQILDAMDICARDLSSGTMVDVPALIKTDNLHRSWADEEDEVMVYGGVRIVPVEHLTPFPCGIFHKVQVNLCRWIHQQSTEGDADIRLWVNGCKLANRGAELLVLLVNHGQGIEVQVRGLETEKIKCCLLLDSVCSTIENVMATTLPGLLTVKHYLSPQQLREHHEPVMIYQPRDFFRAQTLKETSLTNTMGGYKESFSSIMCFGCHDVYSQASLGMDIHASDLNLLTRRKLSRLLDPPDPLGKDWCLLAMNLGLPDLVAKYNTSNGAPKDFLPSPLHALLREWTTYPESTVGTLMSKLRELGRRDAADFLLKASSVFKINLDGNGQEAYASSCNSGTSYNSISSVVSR

In the case of `COc1cc2c(Oc3ccc(-c4nc5ccccc5s4)cc3)ncnc2cc1OCCCN1CCN(C)CC1`, the residual activity in test [1] is 79%; in test [2], 81%; in test [3], 73%; in test [4], 100%; in test [5], 101%; in [6], 106%. Also, the residual activity in [7] turned out to be 96%; in [8] it was 32%; in test [9], 11%; in test [10], 82%; in test [11] it was 130%; in test [12] it was 2%.
With `COc1cc2c(Oc3ccc(-c4nc5ccccc5s4)cc3)ncnc2cc1OCCCN1CCCC1`, the residual activity was 95% in test [1]; 86% in [2]; 83% in test [3]; 102% in [4]; 103% in [5]; 93% in [6]. Further, the residual activity in [7] worked out at 84%; in test [8] it was 47%; in [9], 7%; in [10], 100%; in test [11], 113%; in [12], 4%.
For the compound `COc1cc2c(Oc3ccc(-c4nc5ccccc5s4)cc3F)ncnc2cc1OCCCN1CCN(C)CC1`, the residual activity was 81% in test [1]; 90% in test [2]; 72% in test [3]; 90% in test [4]; 105% in [5]; 107% in [6]. The residual activity in [7] stood at 85%; in test [8], 26%; in test [9] it was 10%; in test [10], 64%; in [11], 119%; in [12], 1%.
